# Measured values: patent US11571481B2, “Peptide-linked drug delivery system” (priority 2020, dated 2023)
# “Also recorded” adds a separate entry of the source. Where a SMILES comes first, the peptide text is derived from it. [ ]: non-standard residue; d: D form. The star is where a group is joined. X1 = COc1cc2cc(c1Cl)N(C)C(=O)C[C@H](OC(=O)[C@H](C)N(C)C(=O)CCS*)[C@]1(C)O[C@H]1[C@H](C)[C@@H]1C[C@@](O)(NC(=O)O1)[C@H](OC)/C=C/C=C(\C)C2; βAla = NCCC(=O)O; Mpa = O=C(O)CCS
# What was measured:
# [1] = Immunogenicity assay (plasma cytokines by ELISA); type: in vivo, BALB/c mice; details: 5 mg/kg i.v., 4 h after injection
# Description: Immunogenicity assay—Female BALB/c mice were treated with a single dose of Bdd or LPS (5 mg/kg) via tail-vein injection (n=3/group). Mice administered with PBS were used as a negative control. Blood samples were collected 4 h later via retro-orbital sinus puncture technique, and the concentration of the innate immune and inflammatory cytokines IL1β, IL2, IL6, IL10, TNF-α, and INF-γ in plasma was measured with commercial sandwich enzyme-linked immunosorbent assay kits. ELISA assays were performed according to the manufacturer's instructions (Invitrogen, Carlsbad, Calif.).
# [2] = Nephrotoxicity studies (urinary NGAL and KIM-1, kidney histology and IHC); type: in vivo, BALB/c mice; details: for induction of KIM-1 and/or NGAL: i.v., at 3 days
# Description: The level of the acute renal injury biomarkers, neutrophil gelatinase-associated lipocalin (NGAL) and kidney injury molecule-1 (KIM-1) in the urine samples, were measured using ELISA assays according to the manufacturer's instructions (R&D Systems, Minneapolis, Minn.). […] All the animals (n=3/group) were euthanized at the end of the treatment and the kidneys were collected and fixed in 10% neutral buffered formalin. The tissues were then processed, embedded in paraffin, sectioned, and stained with H&E. Immunohistochemistry (IHC) for kidney injury (NGAL and KIM-1) was also performed.
# [3] = system: orthotopic human UMUC-3/GFP-Luc bladder tumors; assay: Therapeutic efficacy of drug-Bdd conjugates for treating BC (orthotopic xenograft)
# Description: Therapeutic efficacy of drug-Bdd conjugates for treating BC—Animals were orthotopically implanted with tumors as previously described. Briefly, the urine of 7- to 9-week-old female NSG mice (Jackson Laboratory, Bar Harbor, Me.) was remove through a sterile 24 G pediatric venous catheter (Dublin, Ireland). A trypsin solution (0.125%, 80 μL) was then delivered into the bladder, Subsequently. UMUC-3/GFP-Luc cells (4×10^4 cells) in culture media (50 μL) were transferred into the bladders and allowed for seeding. Tumor progression was monitored by bioluminescence imaging. Luciferin (3 mg) in PBS (100 μL) was given to the animals (via intraperitoneal injection) 15 min prior to performing imaging. […] The therapeutic efficacy was evaluated based on tumor growth inhibition (bioluminescence imaging) and long-term survival.
# [4] = μPET/CT imaging and end-point biodistribution study of ^89Zr-peptides; type: in vivo, BALB/c mice
# Description: μPET/CT imaging and biodistribution study—BALB/c mice were intravenously injected with different ^89Zr-peptide analogues (20 μCi, 100 μL). μPET/CT imaging was performed in animals with and without urine collection prior to the first imaging (n=4/analogue/condition). Whole-body images were acquired 1, 4, and 24 h after injection, using Inveon μPET/CT scanner (Siemens Medical Solutions, Malvern, Pa.). μPET/CT maximum […] projections were processed using Amide v1.0.4 and Inveon Research Workplace software. The radioactivities at different region of interest (ROI) were determined. For end-point biodistribution studies, the mice were euthanized 0.17, 1, 2, 5, and 7 days after treatment with ^89Zr-peptides (n=3/peptide analogue/time point). The radioactivities of the harvested organs were measured using the Wallac Wizard 2 gamma counter. The results were corrected from radioactive decay, and were expressed as a percentage of the injected dose (% ID) or percentage of injected dose per gram of tissue (% ID/g).
# [5] = set-up: species or system BALB/c mice; details: mouse, in vivo, iv
# Description: Pharmacokinetic study—BALB/c mice (Jackson Laboratory, Bar Harbor, Me.) were administered with ^89Zr-peptide or free ^89Zr (20 μCi, 100 μL) via tail-vein injections (n=4/condition). Blood samples (20 μL) were collected at various time intervals, using retro-orbital sinus puncture technique. The radioactivities were measured on Wallac Wizard 2 gamma counter (Perkin-Elmer, Waltham, Mass.). The pharmacokinetic models and parameters of ^89Zr-peptides and free ^89Zr, including the serum half-life and the plasma clearance, were estimated by fitting the data for compartmental model selection using PKSolver 2.0 software.
# [6] = Fluorescence imaging of Cy-peptide analogues (whole body, urine, ex vivo organs); details: i.v. 0.5 nmol, images 1 and 4 h
# Description: Fluorescence imaging—Female SHO mice (Charles River Laboratories, Wilmington, Mass.) were administered with free Cyanine5.5 or Cy-peptide analogues (0.5 nmol of Cyanine5.5 content measured by UV absorbance at 680 nm) in a PBS (150 μL) via tail-vein injections (n=4/group). Real-time fluorescence imaging was performed using In vivo Xtreme imaging system (Bruker, Billerica, Mass.). Whole body fluorescence images were acquired 1 and 4 h post injection using the appropriate excitation (670 nm) and emission (750 nm) filters. The animals were then euthanized. The organs were excised to perform ex vivo fluorescence imaging. Imaging was also performed on urine samples (50 μL) collected from separate animals 1 h after i.v. injection of free dye or Cy-peptide analogues (n=4/treatment). Bruker MI software was used to process the fluorescence/bright light images and measure the fluorescence intensity in different ROIs. All the data were corrected to eliminate the organ or fluid auto-fluorescence.
# [7] = system: UMUC-3; assay: Cell viability and cytotoxicity assay (CellTiter Glo, 72 h); type: cell-based, human; details: UMUC-3, 72 h
# Description: (§1) Cell viability and cytotoxicity assay—Cancer cells (3×10^3/well) were seeded on a flat bottom 96-well plate overnight. […] CellTiter Glo reagent (Promega, Madison, Wis.) was added in each well (50 μL). The luminescence generated was recorded using a microplate reader (Tecan US Inc., Morrisville, N.C.). The dose response curves were plotted, and the half maximal inhibitory concentrations (IC50 values) were calculated using Graph Pad Prism 6.0 software.
# [8] = system: Renca; assay: as above; type: cell-based, murine
# Description: as §1
# [9] = Toxicity profile in healthy animals (hematology, serum biochemistry, necropsy); type: in vivo, BALB/c mice; details: for hematology (red blood cell, leukocyte, platelet counts, morphology) / histopathology of liver, spleen, heart, lungs, kidneys / serum liver enzymes (ALP, ALT, AST) / urea nitrogen/creatinine ratio: DM1, DM1-Bdd 0.75 mg/kg
# Source text: At the end of a 3-week treatment, mice were euthanized. The organs/tissues were harvested, fixed in 10% neutral buffered formalin for 2 days. Bones were decalcified in a formic acid solution (Surgipath Decalcifier I; Leica Biosystems, Weltzar, Germany). The samples were then embedded in paraffin, sectioned (5 μm), and stained with H&E for examination by an ACVP board certified anatomic pathologist.
# Hematology and biochemistry—Blood samples were collected via cardiac puncture. A complete blood count, including red blood cell, white blood cell, reticulocyte and platelet counts, with an automated differential leukocyte count, was performed using an IDEXX Procyte DX hematology analyzer (iDEXX, Westbrook, Me.). Blood smears were prepared, stained with modified Wright's stain, examined in a blinded fashion by a board-certified veterinary clinical pathologist (T. S.), and imaged using a Nikon Eclipse TE2000-U fluorescent microscope equipped with a photometrics CoolSNAP HQ^2 camera (Nikon Corporation, Tokyo, Japan). The blood was also centrifuged (1,500×G) for 15 min to obtain the serum for biochemical analysis using a Beckman Coulter AU680 analyzer (Beckman Coulter, Brea, Calif.).
# [10] = system: panel of BC cell lines; assay: Cell viability and cytotoxicity assay (CellTiter Glo, 72 h); type: cell-based
# Description: as §1
# [11] = system: Renca/GFP-Luc tumors in kidney capsule; assay: Evaluation of DM1-Bdd for kidney cancer treatment (syngeneic orthotopic model); type: in vivo, BALB/c mice
# Source text: The animals were monitored for tumor growth inhibition and survival as described above. Additional mice were used for histopathological analysis (n=4/group).
# Slides were then counterstained with Hematoxylin.
# [12] = i.v. 0.75 mg/kg of drug content weekly for 3 weeks
# [13] = i.v. weekly for 3 weeks, CIS 10 mg/kg
compound,measurement,setting,value
NCCC(=O)N[C@H](CC(=O)O)C(=O)N[C@H](CC(=O)O)C(=O)NCCC(=O)N[C@H](CC(=O)O)C(=O)N[C@H](CC(=O)O)C(=O)NCCC(=O)N[C@H](CC(=O)O)C(=O)N[C@H](CC(=O)O)C(=O)NCCC(=O)N[C@H](CC(=O)O)C(=O)N[C@H](CC(=O)O)C(N)=O [Bdd] (HELM PEPTIDE1{[bAla].[dD].[dD].[bAla].[dD].[dD].[bAla].[dD].[dD].[bAla].[dD].[dD].[am]}$$$$V2.0; N-terminus assumed),"inflammatory cytokine levels (IL-1β, IL-2, IL-6, IL-10, TNF-α, INF-γ) in plasma",[1],no increase
"CO[C@@]12[C@H](COC(N)=O)C3=C(C(=O)C(C)=C(N)C3=O)N1C[C@@H]1N[C@@H]12 [MIT, Mitomycin]",induction of KIM-1 and/or NGAL,[2],continued induction
"COc1cccc2c1C(=O)c1c(O)c3c(c(O)c1C2=O)C[C@@](O)(C(=O)CO)C[C@@H]3O[C@H]1C[C@H](N)[C@H](O)[C@H](C)O1 [DOX, Doxorubicin]",animal survival,[3]; 5 mg/kg of drug content weekly for 3 weeks,shorter life expectancy compared to the PBS control
same,drug-induced mortality,[3]; DOX 5 mg/kg weekly,died prior to receiving the final dose
"CC(=O)N(O)CCCCCNC(=O)CCC(=O)N(O)CCCCCNC(=O)CCC(=O)N(O)CCCCCNC(=S)Nc1ccc(NC(=S)NCCC(=O)N[C@H](CC(=O)O)C(=O)N[C@H](CC(=O)O)C(=O)NCCC(=O)N[C@H](CC(=O)O)C(=O)N[C@H](CC(=O)O)C(=O)NCCC(=O)N[C@H](CC(=O)O)C(=O)N[C@H](CC(=O)O)C(=O)NCCC(=O)N[C@H](CC(=O)O)C(=O)N[C@H](CC(=O)O)C(N)=O)cc1 [^89Zr-Bdd, metal not drawn] (HELM PEPTIDE1{[CC(=O)N(O)CCCCCNC(=O)CCC(=O)N(O)CCCCCNC(=O)CCC(=O)N(O)CCCCCNC(=S)Nc1ccc(NC(=S)[*:2])cc1].[bAla].[dD].[dD].[bAla].[dD].[dD].[bAla].[dD].[dD].[bAla].[dD].[dD].[am]}$$$$V2.0)",time to excretion into the urine after i.v. administration,"[4]; i.v., confirmed by absence of radioactivity in emptied bladders",≤ 1 h
same,ID found in kidneys,"[4]; mouse, in vivo",15.1 % ID
same,ID found in kidneys after 7 days,"[4]; mouse, in vivo",2.1 % ID
same,peptide in major organs or blood circulation,"[4]; mouse, in vivo, iv",No peptide in major organs or blood circulation was detected
same,terminal half-life,[5]; BALB/c,31.8 min
same,plasma clearance,[5],rapid
"Nc1ccn([C@@H]2O[C@H](CO)[C@@H](O)C2(F)F)c(=O)n1 [GEM, gemcitabine]",induction of KIM-1 and/or NGAL,[2],continued induction
Cyanine5.5,elimination route / main organ uptake by fluorescence imaging,[6],mainly taken up by the liver
"COc1cc2cc(c1Cl)N(C)C(=O)C[C@H](OC(=O)[C@H](C)N(C)C(=O)CCS)[C@]1(C)O[C@H]1[C@H](C)[C@@H]1C[C@@](O)(NC(=O)O1)[C@H](OC)/C=C/C=C(\C)C2 [DM1, N2′-deacetyl-N2′-(3-mercapto-1-oxopropyl)-maytansine]",IC50 values,[7],nanomolar (nM) range
same,potency compared to other conventional chemotherapeutics,[7],"more potent than cisplatin (CIS), doxorubicin (DOX) and mitomycin (MIT), and as effective as gemcitabine (GEM)"
same,animal survival compared to i.t. MIT,[3]; [12],prolonged animal survival
same,tumor growth inhibition compared to i.t. MIT,[3]; [12],more effective in inhibiting tumor growth
same,overall survival after 100 days,[3]; i.v. 0.75 mg/kg weekly for 3 weeks,0%
same,activity against Renca cell line,[8],effective
same,muscle injury (CK activity),"[9]; i.v. weekly for 3 weeks, DM1 0.75 mg/kg, CIS 10 mg/kg",induced muscle injury
same,"hematology (red blood cell, leukocyte, platelet counts, morphology)",[9]; [13],"reticulocytosis without apparent anemia; also recorded: inflammatory response characterized by increased proportions of neutrophils, monocytes, and platelets"
same,"histopathology of liver, spleen, heart, lungs, kidneys",[9]; [13],Increased splenic and hepatic EMH
same,"serum liver enzymes (ALP, ALT, AST)",[9]; [13],increases
same,urea nitrogen/creatinine ratio,[9]; [13],increases
same,"potency relative to commonly used ITC drugs (MIT, DOX and CIS)",[10],100 fold
same,survival,"[11]; either i.v. or i.t., 0.75 mg/kg weekly",died
same,histological examination of kidneys (tumor),[11]; one week after completing the treatment course,large and accompanied with an infiltration of mononuclear cells
same,induction of KIM-1 and/or NGAL,[2],continued induction
COc1cc2cc(c1Cl)N(C)C(=O)C[C@H](OC(=O)[C@H](C)N(C)C(=O)CCSSCCC(=O)NCCC(=O)N[C@H](CC(=O)O)C(=O)N[C@H](CC(=O)O)C(=O)NCCC(=O)N[C@H](CC(=O)O)C(=O)N[C@H](CC(=O)O)C(=O)NCCC(=O)N[C@H](CC(=O)O)C(=O)N[C@H](CC(=O)O)C(=O)NCCC(=O)N[C@H](CC(=O)O)C(=O)N[C@H](CC(=O)O)C(N)=O)[C@]1(C)O[C@H]1[C@H](C)[C@@H]1C[C@@](O)(NC(=O)O1)[C@H](OC)/C=C/C=C(\C)C2 [DM1-Bdd] ([Mpa](X1)[βAla][dD][dD][βAla][dD][dD][βAla][dD][dD][βAla][dD][dD]-NH2),hepatotoxicity,[9]; [12],not hepatotoxic
same,"hematology (red blood cell, leukocyte, platelet counts, morphology)",[9]; [13],did not affect
same,"histopathology of liver, spleen, heart, lungs, kidneys",[9]; [13],no morphological evidence of injury
same,"serum liver enzymes (ALP, ALT, AST)",[9]; [13],no significant alteration
same,urea nitrogen/creatinine ratio,[9]; [13],normal
same,immunoreactivity of kidney sections for KIM-1 and NGAL compared to PBS,[2]; 3 days after i.v. administration,no elevation of the immunoreactivity
same,histologic examination of kidneys,"[2]; 3 days after i.v. drug administration, CIS 10 mg/kg, DM1-Bdd 0.75 mg/kg",did not reveal any abnormalities
same,time for urinary KIM-1 and NGAL to return to basal levels,[2]; single i.v. dose 0.75 mg/kg of drug content,≤ 3 days
same,urinary KIM-1 and NGAL levels,"[2]; single i.v. dose 0.75 mg/kg of drug content, 1 day after injection",slightly increased
